# Data: patent publication US12077555B2, “STAT degraders and uses thereof” (Kymera Therapeutics, Inc., priority 2019, dated 2024)
# Tests used:
# [1] = system: SU-DHL-1 tumor cells; test: Xenograph tumor study, SU-DHL-1; type: in vivo, NOD SCID mice; conditions: SUDHL-1 xenograph, 2.5-30 mg/kg, 2 days on/5 days off
# Procedure: Animals: 50 6-8 week old female NOD SCID mice weighing 18 to 20 grams. 25 mice were used in each study.
# Method for Tumor Inoculation: Each mouse was inoculated subcutaneously with SU-DHL-1 tumor cells (1×107+Matrigel) or SUP-M2 tumor cells (5×106+Matrigel) in 0.1 ml of RPMI1640 medium supplemented with 10% FBS, 100 U/ml penicillin and […] streptomycin for tumor development. Mice were then assigned to groups such that the mean tumor volume was the same for each treatment group and time point. […] Vehicle was 25% HP-β-CD in water adjusted to pH 7.4.
# Measurement Parameters: Study animals were monitored not only for tumor growth but also behavior such as mobility, food and water consumption (by cage side checking only), body weight (BW), eye/hair matting and any other abnormal effect. Any mortality and/or abnormal clinical signs was recorded. Sponsor was notified immediately if abnormal clinical signs, or if tolerability issues were observed. Body weights of all animals were measured and recorded twice per week. The measurement of tumor size was conducted twice weekly with a caliper and recorded. The tumor volume (mm3) was estimated using the formula: TV=a×b2/2, where “a” and “b” are long and short diameters of a tumor, respectively.
# [2] = target: T1, STAT3 (Homo sapiens, UniProt P40763); test: STAT3 HiBiT degradation assay in transfected A549 cells; type: cell-based; design: expressed in transfected cells; host or cells: A549; conditions: A549, 24 h; read-out: STAT3 HiBiT A549 degradation 24 h: Average external-Abs DC50
# T1 sequence (P40763 whole entry): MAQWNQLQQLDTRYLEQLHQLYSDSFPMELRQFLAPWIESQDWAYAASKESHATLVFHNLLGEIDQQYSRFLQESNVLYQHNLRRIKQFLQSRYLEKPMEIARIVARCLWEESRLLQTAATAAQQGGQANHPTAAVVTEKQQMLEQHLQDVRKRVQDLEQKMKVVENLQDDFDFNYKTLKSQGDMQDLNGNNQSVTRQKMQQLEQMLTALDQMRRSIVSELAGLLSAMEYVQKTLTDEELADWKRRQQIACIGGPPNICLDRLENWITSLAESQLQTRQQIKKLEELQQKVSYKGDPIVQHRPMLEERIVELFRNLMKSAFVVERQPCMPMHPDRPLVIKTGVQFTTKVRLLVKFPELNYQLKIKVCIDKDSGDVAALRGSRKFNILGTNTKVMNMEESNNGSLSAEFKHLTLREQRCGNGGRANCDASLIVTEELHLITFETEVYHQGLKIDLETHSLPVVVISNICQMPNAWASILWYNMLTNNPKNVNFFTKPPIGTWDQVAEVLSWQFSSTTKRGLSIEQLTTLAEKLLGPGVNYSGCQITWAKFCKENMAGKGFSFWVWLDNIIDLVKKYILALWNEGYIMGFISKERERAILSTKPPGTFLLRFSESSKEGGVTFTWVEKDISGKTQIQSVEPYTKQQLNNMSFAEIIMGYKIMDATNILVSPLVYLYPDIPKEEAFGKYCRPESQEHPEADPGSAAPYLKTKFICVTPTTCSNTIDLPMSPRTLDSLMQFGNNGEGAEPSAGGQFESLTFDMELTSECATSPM
# In short: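 Degradation read as HiBiT-tagged STAT3 luminescence (Nano-Glo lytic reagent, 10 min, room temperature) following 24 h compound treatment of transfected A549 cells at 3-fold, 10 points. Percent remaining signal computed against controls and fitted with a four-parameter logistic; DC50 reported as letter bins (A <0.01 to D >1.0 µM).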
# [3] = target: T1, STAT3; test: Quantitation of STAT3 degradation in A549 cells by Western blot; type: cell-based; design: expressed in transfected cells; host or cells: A549
# In short: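 A549 cells treated 24 h at 37° C with compound at 30, 10, 3, 1, 0.3 μM or DMSO; RIPA lysates analysed by SDS-PAGE/Western blot for total STAT3, β-actin as loading control, LI-COR fluorescence read-out. DC50 derived by sigmoidal fit of dose-dependent degradation.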
# [4] = read-out: A549 DC50, 24 hours, tested up to 30 μM or 10 μM
compound,measurement,setting,value
"CC(C)c1ccc(CNC(=O)[C@H](CCC(N)=O)NC(=O)[C@@H]2CC[C@@H]3CCN(C(=O)C[C@H]4CC[C@@H](Cc5ccc6c(c5)n(C)c(=O)n6C5CCC(=O)NC5=O)CC4)C[C@H](NC(=O)c4cc5cc(C(=O)P(=O)(O)O)ccc5[nH]4)C(=O)N32)cc1 (stereo partly drawn) [Compound I-196, 2-[[(5S,8S,10aR)-8-[[(1S)-3-carbamoyl-1-[[(4-isopropylphenyl)methyl]carbamoyl]propyl]carbamoyl]-6-oxo-3-[2-[(1S,4S)-4-[[1-(2,6-dioxopiperidin-3-yl)-3-methyl-2-oxo-1,3-benzodiazol-5-yl]methyl]cyclohexyl]acetyl]-octahydropyrrolo[1,2-a][1,5]diazocin-5-yl]carbamoyl]-1H-indole-5-carbonylphosphonic acid]","tumor volume, 5 days",[1]; IP,A (A<500 mm^3)
same,"tumor volume, 10 days",[1]; IP,A (A<500 mm^3)
same,"tumor volume, 15 days",[1]; IP,A (A<500 mm^3)
same,"tumor volume, 20 days",[1]; IP,A (A<500 mm^3)
same,DC50,[2],0.01 to 0.1 µM
"CC(=O)N1CC[C@H]2CC[C@@H](C(=O)N[C@@H](CCC(N)=O)COc3cc(C)cc(CCCCCC(=O)N[C@H](C(=O)N4C[C@H](O)C[C@H]4C(=O)N[C@@H](C)c4ccc(-c5scnc5C)cc4)C(C)(C)C)c3F)N2C(=O)[C@@H](NC(=O)c2cc3cc(C(=O)P(=O)(O)O)ccc3[nH]2)C1 [Compound I-262, 2-[[(5S,8S,10aR)-3-acetyl-8-[[(2S)-4-carbamoyl-1-[2-fluoro-3-(5-[[(2S)-1-[(2S,4R)-4-hydroxy-2-[[(1S)-1-[4-(4-methyl-1,3-thiazol-5-yl)phenyl]ethyl]carbamoyl]pyrrolidin-1-yl]-3,3-dimethyl-1-oxobutan-2-yl]carbamoyl]pentyl)-5-methylphenoxy]butan-2-yl]carbamoyl]-6-oxo-octahydropyrrolo[1,2-a][1,5]diazocin-5-yl]carbamoyl]-1H-indole-5-carbonylphosphonic acid]","tumor volume, 5 days",[1]; IV,A (A<500 mm^3)
same,"tumor volume, 10 days",[1]; IV,A (A<500 mm^3)
same,"tumor volume, 15 days",[1]; IV,A (A<500 mm^3)
same,"tumor volume, 20 days",[1]; IV,A (A<500 mm^3)
same,DC50,[2],< 0.01 µM
"CC(=O)N1CC[C@H]2CC[C@@H](C(=O)N[C@@H](CCC(N)=O)COc3cccc(CCCCC(=O)N[C@H](C(=O)N4C[C@H](O)C[C@H]4C(=O)N[C@@H](C)c4ccc(-c5scnc5C)cc4)C(C)(C)C)c3Cl)N2C(=O)[C@@H](NC(=O)c2cc3cc(C(=O)P(=O)(O)O)ccc3[nH]2)C1 [Compound I-233, diammonium 2-[[(5S,8S,10aR)-3-acetyl-8-[[(2S)-4-carbamoyl-1-[2-chloro-3-(4-[[(2S)-1-[(2S,4R)-4-hydroxy-2-[[(1S)-1-[4-(4-methyl-1,3-thiazol-5-yl)phenyl]ethyl]carbamoyl]pyrrolidin-1-yl]-3,3-dimethyl-1-oxobutan-2-yl]carbamoyl]butyl)phenoxy]butan-2-yl]carbamoyl]-6-oxo-octahydropyrrolo[l,2-a][1,5]diazocin-5-yl]carbamoyl]-1H-indole-5-carbonylphosphonate]","tumor volume, 5 days",[1]; IV,A (A<500 mm^3)
same,"tumor volume, 10 days",[1]; IV,A (A<500 mm^3)
same,"tumor volume, 15 days",[1]; IV,A (A<500 mm^3)
same,"tumor volume, 20 days",[1]; IV,A (A<500 mm^3)
same,DC50,[2],< 0.01 µM
"Cn1c(=O)n(C2CCC(=O)NC2=O)c2ccc(C[C@H]3CC[C@@H](CC(=O)N4CC[C@H]5CC[C@@H](C(=O)N[C@@H](CCC(N)=O)C(=O)NCc6ccc(S(C)(=O)=O)cc6)N5C(=O)[C@@H](NC(=O)c5cc6cc(C(=O)P(=O)(O)O)ccc6[nH]5)C4)CC3)cc21 (stereo partly drawn) [Compound I-195, 2-[[(5S,8S,10aR)-8-[[(1S)-3-carbamoyl-1-[[(4-methanesulfonylphenyl)methyl]carbamoyl]propyl]carbamoyl]-6-oxo-3-[2-[(1S,4S)-4-[[1-(2,6-dioxopiperidin-3-yl)-3-methyl-2-oxo-1,3-benzodiazol-5-yl]methyl]cyclohexyl]acetyl]-octahydropyrrolo[1,2-a][1,5]diazocin-5-yl]carbamoyl]-1H-indole-5-carbonylphosphonic acid]","tumor volume, 5 days",[1]; IP,A (A<500 mm^3)
same,"tumor volume, 10 days",[1]; IP,A (A<500 mm^3)
same,"tumor volume, 15 days",[1]; IP,A (A<500 mm^3)
same,"tumor volume, 20 days",[1]; IP,A (A<500 mm^3)
same,DC50,[2],0.01 to 0.1 µM
"C/C(=C\C(=O)N[C@H]1CCc2cccc3c2N(C1=O)[C@H](C(=O)N[C@@H](CCC(N)=O)[C@@H](C)OCc1ccc(CCCCCc2cccc4c2n(C)c(=O)n4C2CCC(=O)NC2=O)cc1)C3)c1ccc(C(F)(F)P(=O)(OCOC(=O)C(C)(C)C)OCOC(=O)C(C)(C)C)cc1 (stereo partly drawn) [Compound I-6, [([4-[(1E)-1-[[(2S,11S)-2-[[(3S,4R)-1-carbamoyl-4-[(4-[5-[1-(2,6-dioxopiperidin-3-yl)-3-methyl-2-oxo-1,3-benzodiazol-4-yl]pentyl]phenyl)methoxy]pentan-3-yl]carbamoyl]-12-oxo-1-azatricyclo[6.4.1.0^[4,13]]trideca-4(13),5,7-trien-11-yl]carbamoyl]prop-1-en-2-yl]phenyl]difluoromethyl([(2,2-dimethylpropanoyl)oxy]methoxy)phosphoryl)oxy]methyl 2,2-dimethylpropanoate]",DC50,[3]; [4],> 30 µM
"C/C(=C\C(=O)N[C@H]1CCc2cccc3c2N(C1=O)[C@H](C(=O)N[C@@H](CCC(N)=O)[C@@H](C)OCc1ccc(CCCOCc2cccc4c2n(C)c(=O)n4C2CCC(=O)NC2=O)cc1)C3)c1ccc(C(F)(F)P(=O)(OCOC(=O)C(C)(C)C)OCOC(=O)C(C)(C)C)cc1 (stereo partly drawn) [Compound I-5, [([4-[(1E)-1-[[(2S,11S)-2-[[(3S,4R)-1-carbamoyl-4-[[4-(3-[[1-(2,6-dioxopiperidin-3-yl)-3-methyl-2-oxo-1,3-benzodiazol-4-yl]methoxy]propyl)phenyl]methoxy]pentan-3-yl]carbamoyl]-12-oxo-1-azatricyclo[6.4.1.0^[4,13]]trideca-4(13),5,7-trien-11-yl]carbamoyl]prop-1-en-2-yl]phenyl]difluoromethyl([(2,2-dimethylpropanoyl)oxy]methoxy)phosphoryl)oxy]methyl 2,2-dimethylpropanoate]",DC50,[3]; [4],> 30 µM
C/C(=C\C(=O)N[C@H]1CCc2cccc3c2N(C1=O)[C@H](C(=O)NC(CCC(N)=O)[C@@H](C)OCc1ccc(CCCOCCOCCOCCOCC(=O)N[C@H](C(=O)N2C[C@H](O)C[C@H]2C(=O)NCc2ccc(-c4scnc4C)cc2)C(C)(C)C)cc1)C3)c1ccc(C(F)(F)P(=O)(OCOC(=O)C(C)(C)C)OCOC(=O)C(C)(C)C)cc1 (stereo partly shown) [Compound I-32],DC50,[3]; [4],> 10 µM
"Cn1c(=O)n(C2CCC(=O)NC2=O)c2ccc(C#CCCCCCC(=O)N3CC[C@H]4CC[C@@H](C(=O)N[C@@H](CCC(N)=O)C(=O)NC(c5ccccc5)c5ccccc5)N4C(=O)[C@@H](NC(=O)c4cc5cc(C(=O)P(=O)(O)O)ccc5[nH]4)C3)cc21 (stereo partly drawn) [Compound I-104, 2-[[(5S,8S,10aR)-8-[[(1S)-3-carbamoyl-1-(diphenylmethylcarbamoyl)propyl]carbamoyl]-3-[8-[1-(2,6-dioxopiperidin-3-yl)-3-methyl-2-oxo-1,3-benzodiazol-5-yl]oct-7-ynoyl]-6-oxo-octahydropyrrolo[1,2-a][1,5]diazocin-5-yl]carbamoyl]-1H-indole-5-carbonylphosphonic acid]",DC50,[3]; [4],< 30 µM
"Cc1ncsc1-c1ccc(CNC(=O)[C@@H]2C[C@@H](O)CN2C(=O)[C@@H](NC(=O)CCCCc2ccc(CO[C@H](C)[C@H](CCC(N)=O)NC(=O)[C@@H]3Cc4cccc5c4N3C(=O)[C@@H](NC(=O)c3cc4cc(CP(=O)(O)O)ccc4[nH]3)CC5)cc2)C(C)(C)C)cc1 [Compound I-82, diammonium (2-[[(2S,11S)-2-[[(3S,4R)-1-carbamoyl-4-[[4-(4-[[(2S)-1-[(2S,4R)-4-hydroxy-2-([[4-(4-methyl-1,3-thiazol-5-yl)phenyl]methyl]carbamoyl)pyrrolidin-1-yl]-3,3-dimethyl-1-oxobutan-2-yl]carbamoyl]butyl)phenyl]methxy]opentan-3-yl]carbamoyl]-12-oxo-1-azatricyclo[6.4.1.0^[4,13]]trideca-4(13),5,7-trien-11-yl]carbamoyl]-1H-indo1-5-yl)methylphosphonate]",DC50,"[3]; 24 hours, tested up to 30 μM or 10 μM, read-out: A549 DC50",> 30 µM
